Assay results as given in PubChem BioAssay (NCI).
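Grown in 96-well plates, cells were treated for 48 hours with each compound at five concentrations. Insufficient inhibition: endpoint recorded as highest concentration tested. Definition used: TGI = concentration required for complete inhibition of growth.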

Tests used:
Assay in all cases: NCI-60 cell line screen, 48 h
[1] = test system: SW-620 colon
[2] = test system: RXF-631 renal
[3] = test system: NCI-H522 lung
[4] = test system: A498 renal
[5] = test system: SK-MEL-28 melanoma
[6] = test system: SNB-19 CNS
[7] = test system: EKVX NSCLC
[8] = test system: HCT-116 colon
[9] = test system: HOP-92 NSCLC
[10] = test system: OVCAR-8 ovarian
[11] = test system: KM20L2 colon
[12] = test system: CCRF-CEM leukemia
[13] = test system: UO-31 renal
[14] = test system: M19-MEL melanoma
[15] = test system: SF-539 CNS
[16] = test system: UACC-62 melanoma
[17] = test system: 786-0 renal
[18] = test system: SF-295 CNS
[19] = test system: HCT-15 colon
[20] = test system: TK-10 renal
[21] = test system: SK-MEL-2 melanoma
[22] = test system: KM12 colon
[23] = test system: MOLT-4 leukemia
[24] = test system: OVCAR-4 ovarian
[25] = test system: SNB-75 CNS
[26] = test system: LXFL 529 NSCLC
[27] = test system: DLD-1 colon
[28] = test system: HOP-18 NSCLC
[29] = test system: NCI-H460 lung
[30] = test system: CAKI-1 renal
[31] = test system: SF-268 CNS
[32] = test system: IGROV1 ovarian
[33] = test system: SK-OV-3 ovarian
[34] = test system: SN12C renal
[35] = test system: NCI-H226 lung
[36] = test system: K-562 leukemia
[37] = test system: MALME-3M melanoma
[38] = test system: ACHN renal
[39] = test system: LOX IMVI melanoma
[40] = test system: HT29 colon
[41] = test system: UACC-257 melanoma
[42] = test system: HCC-2998 colon
[43] = test system: SR leukemia
[44] = test system: A549 NSCLC
[45] = test system: HOP-62 NSCLC
[46] = test system: M14 melanoma
[47] = test system: HL-60(TB) leukemia
[48] = test system: OVCAR-3 ovarian
[49] = test system: SNB-78 CNS
[50] = test system: RXF 393 renal
[51] = test system: DMS 114 small cell lung
[52] = test system: OVCAR-5 ovarian
[53] = test system: NCI-H23 lung
[54] = test system: SK-MEL-5 melanoma
[55] = test system: RPMI-8226 leukemia
[56] = test system: COLO 205 colon
[57] = test system: U251 CNS
[58] = test system: DMS 273 small cell lung

## Cc1ccc(N=Nc2c(C)nn(-c3ccccc3)c2-c2ccccc2)c(Br)c1
[1]
  TGI: > 100 µM
[2]
  TGI: > 100 µM
[3]
  TGI: > 100 µM
[4]
  TGI: > 100 µM
[5]
  TGI: > 100 µM
[6]
  TGI: > 100 µM
[7]
  TGI: > 100 µM
[8]
  TGI: > 100 µM
[9]
  TGI: > 100 µM
[10]
  TGI: > 100 µM
[11]
  TGI: > 100 µM
[12]
  TGI: > 100 µM
[13]
  TGI: > 100 µM
[14]
  TGI: > 100 µM
[15]
  TGI: > 100 µM
[16]
  TGI: > 100 µM
[17]
  TGI: > 100 µM
[18]
  TGI: > 100 µM
[19]
  TGI: > 100 µM
[20]
  TGI: > 100 µM
[21]
  TGI: > 100 µM
[22]
  TGI: > 100 µM
[23]
  TGI: > 100 µM
[24]
  TGI: > 100 µM
[25]
  TGI: > 100 µM
[26]
  TGI: > 100 µM
[27]
  TGI: > 100 µM
[28]
  TGI: > 100 µM
[29]
  TGI: > 100 µM
[30]
  TGI: > 100 µM
[31]
  TGI: > 100 µM
[32]
  TGI: > 100 µM
[33]
  TGI: > 100 µM
[34]
  TGI: > 100 µM
[35]
  TGI: > 100 µM
[36]
  TGI: > 100 µM
[37]
  TGI: > 100 µM
[38]
  TGI: > 100 µM
[39]
  TGI: > 100 µM
[40]
  TGI: > 100 µM
[41]
  TGI: > 100 µM
[42]
  TGI: > 100 µM
[43]
  TGI: > 100 µM
[44]
  TGI: > 100 µM
[45]
  TGI: > 100 µM
[46]
  TGI: > 100 µM
[47]
  TGI: > 100 µM
[48]
  TGI: > 100 µM

## CCc1ccccc1NC(=O)C1=C(C)NC(C)=C(C(=O)Nc2ccccc2CC)C1c1cccc([N+](=O)[O-])c1
[1]
  TGI: > 100 µM
[2]
  TGI: > 100 µM
[49]
  TGI: > 100 µM
[3]
  TGI: 97.8 µM
[4]
  TGI: 93.8 µM
[50]
  TGI: > 100 µM
[5]
  TGI: > 100 µM
[6]
  TGI: > 100 µM
[7]
  TGI: > 100 µM
[51]
  TGI: > 100 µM
[9]
  TGI: 62.8 µM
[52]
  TGI: > 100 µM
[10]
  TGI: > 100 µM
[11]
  TGI: > 100 µM
[12]
  TGI: > 100 µM
[13]
  TGI: > 100 µM
[14]
  TGI: > 100 µM
[15]
  TGI: > 100 µM
[17]
  TGI: > 100 µM
[18]
  TGI: > 100 µM
[20]
  TGI: > 100 µM
[21]
  TGI: > 100 µM
[22]
  TGI: > 100 µM
[53]
  TGI: > 100 µM
[23]
  TGI: > 100 µM
[24]
  TGI: > 100 µM
[25]
  TGI: > 100 µM
[26]
  TGI: > 100 µM
[27]
  TGI: > 100 µM
[29]
  TGI: > 100 µM
[30]
  TGI: > 100 µM
[31]
  TGI: > 100 µM
[54]
  TGI: > 100 µM
[32]
  TGI: > 100 µM
[33]
  TGI: > 100 µM
[34]
  TGI: > 100 µM
[35]
  TGI: > 100 µM
[55]
  TGI: > 100 µM
[36]
  TGI: > 100 µM
[56]
  TGI: > 100 µM
[37]
  TGI: > 100 µM
[38]
  TGI: > 100 µM
[39]
  TGI: > 100 µM
[40]
  TGI: > 100 µM
[41]
  TGI: > 100 µM
[42]
  TGI: 62 µM
[44]
  TGI: > 100 µM
[45]
  TGI: > 100 µM
[46]
  TGI: > 100 µM
[47]
  TGI: 88.7 µM
[48]
  TGI: > 100 µM
[57]
  TGI: > 100 µM

## COc1ccc(N2C(=O)/C(=C/c3ccc(N(CCC#N)CCC#N)cc3C)N=C2/C=C\c2ccccc2)cc1
[1]
  TGI: > 100 µM
[2]
  TGI: > 100 µM
[49]
  TGI: > 100 µM
[3]
  TGI: > 100 µM
[5]
  TGI: > 100 µM
[6]
  TGI: > 100 µM
[8]
  TGI: > 100 µM
[51]
  TGI: > 100 µM
[9]
  TGI: > 100 µM
[52]
  TGI: > 100 µM
[10]
  TGI: > 100 µM
[11]
  TGI: 40 µM
[12]
  TGI: > 100 µM
[13]
  TGI: 75 µM
[14]
  TGI: > 100 µM
[15]
  TGI: 56.9 µM
[16]
  TGI: 60.7 µM
[17]
  TGI: > 100 µM
[18]
  TGI: > 100 µM
[19]
  TGI: > 100 µM
[20]
  TGI: > 100 µM
[21]
  TGI: > 100 µM
[22]
  TGI: > 100 µM
[53]
  TGI: > 100 µM
[23]
  TGI: > 100 µM
[24]
  TGI: > 100 µM
[25]
  TGI: > 100 µM
[26]
  TGI: > 100 µM
[27]
  TGI: > 100 µM
[28]
  TGI: > 100 µM
[29]
  TGI: > 100 µM
[30]
  TGI: > 100 µM
[31]
  TGI: > 100 µM
[54]
  TGI: > 100 µM
[32]
  TGI: > 100 µM
[33]
  TGI: > 100 µM
[34]
  TGI: > 100 µM
[35]
  TGI: > 100 µM
[55]
  TGI: > 100 µM
[36]
  TGI: > 100 µM
[56]
  TGI: 92 µM
[37]
  TGI: > 100 µM
[38]
  TGI: > 100 µM
[39]
  TGI: > 100 µM
[40]
  TGI: > 100 µM
[41]
  TGI: > 100 µM
[43]
  TGI: > 100 µM
[44]
  TGI: > 100 µM
[45]
  TGI: 69.6 µM
[46]
  TGI: > 100 µM
[47]
  TGI: > 100 µM
[48]
  TGI: > 100 µM
[57]
  TGI: > 100 µM

## O=C1C(c2ccc([N+](=O)[O-])cc2)=[N+]([O-])c2ccc([N+](=O)[O-])cc21
[1]
  TGI: > 100 µM
[2]
  TGI: > 100 µM
[49]
  TGI: > 100 µM
[50]
  TGI: > 100 µM
[5]
  TGI: > 100 µM
[6]
  TGI: > 100 µM
[7]
  TGI: > 100 µM
[51]
  TGI: > 100 µM
[52]
  TGI: > 100 µM
[10]
  TGI: > 100 µM
[12]
  TGI: 74.1 µM
[13]
  TGI: > 100 µM
[14]
  TGI: 88.2 µM
[15]
  TGI: > 100 µM
[16]
  TGI: 47.5 µM
[17]
  TGI: > 100 µM
[18]
  TGI: > 100 µM
[20]
  TGI: > 100 µM
[22]
  TGI: > 100 µM
[53]
  TGI: > 100 µM
[23]
  TGI: > 100 µM
[24]
  TGI: > 100 µM
[25]
  TGI: > 100 µM
[26]
  TGI: > 100 µM
[27]
  TGI: > 100 µM
[28]
  TGI: > 100 µM
[29]
  TGI: > 100 µM
[31]
  TGI: > 100 µM
[54]
  TGI: > 100 µM
[32]
  TGI: 76.9 µM
[33]
  TGI: 83.2 µM
[35]
  TGI: > 100 µM
[55]
  TGI: > 100 µM
[36]
  TGI: > 100 µM
[56]
  TGI: > 100 µM
[38]
  TGI: > 100 µM
[39]
  TGI: > 100 µM
[58]
  TGI: > 100 µM
[40]
  TGI: > 100 µM
[43]
  TGI: > 100 µM
[44]
  TGI: > 100 µM
[46]
  TGI: > 100 µM
[47]
  TGI: 43.7 µM
[48]
  TGI: 55.8 µM
[57]
  TGI: > 100 µM

## CN(C)C(=S)OC(Cn1cncn1)c1ccc(Cl)cc1Cl (stereo not drawn)
[1]
  TGI: > 100 µM
[2]
  TGI: > 100 µM
[3]
  TGI: > 100 µM
[4]
  TGI: > 100 µM
[50]
  TGI: > 100 µM
[5]
  TGI: > 100 µM
[6]
  TGI: > 100 µM
[7]
  TGI: > 100 µM
[8]
  TGI: > 100 µM
[51]
  TGI: > 100 µM
[9]
  TGI: > 100 µM
[52]
  TGI: > 100 µM
[10]
  TGI: > 100 µM
[11]
  TGI: > 100 µM
[13]
  TGI: > 100 µM
[14]
  TGI: > 100 µM
[15]
  TGI: > 100 µM
[16]
  TGI: > 100 µM
[17]
  TGI: > 100 µM
[18]
  TGI: > 100 µM
[19]
  TGI: > 100 µM
[20]
  TGI: > 100 µM
[21]
  TGI: > 100 µM
[22]
  TGI: > 100 µM
[53]
  TGI: > 100 µM
[23]
  TGI: > 100 µM
[24]
  TGI: > 100 µM
[25]
  TGI: > 100 µM
[26]
  TGI: > 100 µM
[27]
  TGI: > 100 µM
[28]
  TGI: > 100 µM
[29]
  TGI: > 100 µM
[30]
  TGI: > 100 µM
[31]
  TGI: > 100 µM
[54]
  TGI: > 100 µM
[32]
  TGI: > 100 µM
[33]
  TGI: > 100 µM
[34]
  TGI: > 100 µM
[35]
  TGI: > 100 µM
[55]
  TGI: > 100 µM
[36]
  TGI: > 100 µM
[56]
  TGI: > 100 µM
[37]
  TGI: > 100 µM
[38]
  TGI: > 100 µM
[39]
  TGI: > 100 µM
[58]
  TGI: > 100 µM
[40]
  TGI: > 100 µM
[41]
  TGI: > 100 µM
[42]
  TGI: > 100 µM
[44]
  TGI: > 100 µM
[45]
  TGI: > 100 µM
[46]
  TGI: > 100 µM
[47]
  TGI: > 100 µM
[48]
  TGI: > 100 µM
[57]
  TGI: > 100 µM
